The values below come from patent publication US6150414A, “Compositions and methods for treating viral infections” (priority 1992, dated 2000).

In data set [1] the test system is Friend Leukemia Virus. The experiment in a line: FV-induced splenomegaly, PAC compounds in combination with AZT (Example 1(b)). In kind it is in vivo, BALB/c mice. The note with it: 5X AZT 20 micrograms per mouse. The method, then:
The effects of compositions according to the present invention on the increase in spleen size (splenomegaly) of BALB/c mice (Jackson Labs, Bar Harbor, ME) was examined. In these experiments, the virus (10^6 focus forming units--FFU) was inoculated intravenously and 100 micrograms of the compounds indicated in Table II were administered to the mice intraperitoneally 24 hours later. Each compound was administered once to two mice. The animals were sacrificed ten days later and their spleens weighed.
As used in Table II (and subsequent Tables of this Example l(a) and (b), "average percent inhibition" is calculated as follows: [formula] wherein "ASWNC" designates "average spleen weight of negative control"; "ASWE" designates "average spleen weight of experimental (treated) subject"; and "ASWPC" designates "average spleen weight of positive control". Average spleen weight is the numerical average of spleen weights of each experimental group (in Table II each such group includes two members).
The compounds of the present invention (100 micrograms per mouse) were also tested in combination with AZT (20 micrograms per mouse, twice a day) using otherwise the same methods as in Example 1(a) above. As representatives, compound #9 above (3-bromophenanthro (3,4-C), phenanthrene) and compound #10 (diindeno (1, 2, 3-CD/1', 2', 3'-IM) Perylene) were chosen. […] The compounds were administered i.p. either once or five times (once per day) alone or together with AZT (20 micrograms of AZT per mouse twice a day for five days?). Thus, in experiments where AZT was administered five times, a total of […] of AZT was received by each mouse (with a total of 500 micrograms of the PAC compound).

Another data set relates to HIV. The conditions noted are these: human, in vivo; cited from earlier work.
Data set [2] addresses T1, Radiation Leukemia Virus reverse transcriptase (Radiation murine leukemia virus, UniProt P11227).
T1 construct: the reverse transcriptase of Radiation Leukemia Virus; endogenous in cells
Description: Radiation Leukemia Virus reverse transcriptase assay, supernatants from infected AQR cells (Examples 4 and 9). The conditions noted are these: Table VIII; for CPM: replicate. In kind it is biochemical. Summed up: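 Supernatants from AQR cells chronically infected with RadLV were incubated 30 min on ice with the test compound (hypericin, protohypericin or HHA). Virus was pelleted at 100,000×g for 1 h at 4 °C, and the pellet was assayed for reverse transcriptase activity.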

The test system of the next data set is Friend Virus. The experiment in a line: Friend Virus-induced splenomegaly, WIS compounds (Example 8). In kind it is in vivo, mice. Set-up: Actual Spleen Weight / Average Spleen Weight: unit not given here. The note with it: Table VII; for Actual Spleen Weight: single animal. Summed up: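 BALB/c mice were inoculated i.v. with Friend virus (10^6 FFU), then given compound i.p. once 24 h later. Spleens were weighed ten days later, and average percent inhibition of splenomegaly was calculated from spleen weights relative to negative and positive controls. WIS compounds were tested at different concentrations, three mice per group.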

The test system of a further data set is retroviruses (virions). The experiment in a line: Direct inactivation of retroviruses (virions) in vitro (Example 10). The format is biochemical, Radiation Leukemia Virus. The note with it: Table IX. The procedure, abridged: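 RadLV-containing supernatants from chronically infected B10.T(6R) cells incubated 30 min on ice with hypericin or protohypericin. Virions then pelleted at 100,000×g for 1 h at 4° C and assayed for reverse transcriptase activity. EC50 is the micromolar concentration inhibiting 50% of virus.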

In data set [3] the test system is Friend Leukemia Virus. Description: In vivo inhibition of Friend Leukemia Virus splenomegaly, intravenous 1-2 hours post infection (Example 10). The conditions noted are these: Mus musculus, i.v. 1-2 hours post infection, Table IX, read-out: EC50 for FV-induced splenomegaly. Set-up: species or system mice. The method, then:
(3) In vivo inhibition of Friend Leukemia Virus Splenomegaly performed as described in Example 1 above except that the compounds were administered intravenously 1-2 hours post infection.
The results presented above in Table IX are presented as EC50 concentrations. These are the effective concentrations which inhibit 50% of the viruses in micromolar concentrations.

The nature of data set [4]: Stability to light and pH. In kind it is physicochemical. The note with it: neutral or acetic pH.
Another data set has as its system retroviruses. The experiment in a line: Comparison over two in vitro and one in vivo biological assays (Example 10). The conditions noted are these: Example 10, structural comparison. Summed up:
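In vitro direct inactivation of retroviruses was tested alongside in vivo inhibition of Friend Leukemia Virus splenomegaly in mice. For the in vivo test, compounds were given intravenously 1-2 hours post infection.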

The % Inhibition is the percentage by which the read-out fell short of the control. In general, inhibition refers to the change of the read-out against control, counted positive when it falls. Broadly, the EC50 is the concentration needed to bring the measured effect to its halfway point.

Several values for one entry are separate records, joined by “and”; a condition that tells them apart may be missing. Equal entries are not always repeated.

In the case of `Cc1cn([C@H]2C[C@H](N=[N+]=[N-])[C@@H](CO)O2)c(=O)[nH]c1=O` [AZT, 3'-azido-3'-dideoxythymidine, reference compound], in the data set on Friend Leukemia Virus [1], the “% Inhibition” value is listed as 39% and the Average Spleen Weight stood at 1.3895. Further, the Spleen weight in the data set on Friend Leukemia Virus [1] (single animal) is 1.3744 and 1.4046. Moreover, the “clinical toxicity of AZT” value in the data set on HIV was “dose-dependent suppression of bone marrow, resulting in anemia and leukopenia”.

In the case of `Cc1cc(O)c2cc3c(O)cc(O)c4c5c(O)cc(O)c6cc7c(O)cc(C)c8c1c2c(c34)c(c78)c65` [WIS-5, desoxyhypericin], the “Average CPM” value is 193,017 CPM in data set [2] (0.05 micrograms); 171,635 CPM in data set [2] (0.1 micrograms); 249,351 CPM in data set [2] (0.5 micrograms); 251,168 CPM in data set [2] (1 microgram); 205,469 CPM in data set [2] (2 micrograms); 236,878 CPM in data set [2] (5 micrograms). In addition, the “Average CPM” value in data set [2] (10 micrograms) is 177,364 CPM. Besides, the CPM in data set [2] (0.05 micrograms) is 183,654 CPM and 202,380 CPM; in data set [2] (0.1 micrograms) it was 172,984 CPM and 170,286 CPM; in data set [2] (0.5 micrograms), 240,372 CPM and 258,330 CPM; in data set [2] (1 microgram) it was 238,782 CPM and 263,554 CPM; in data set [2] (2 micrograms), 216,764 CPM and 194,174 CPM; in data set [2] (5 micrograms) it was 220,588 CPM and 253,168 CPM. Moreover, the CPM in data set [2] (10 micrograms) is 168,008 CPM and 186,720 CPM. The inhibition at 50 ng in data set [2] (0.5 h, 0.05 micrograms) came out at 76.4%. Also, the inhibition at 0.0001 mg in data set [2] (0.5 h, 0.1 micrograms) stood at 79%. The same molecule yielded an inhibition at 0.0005 mg in data set [2] (0.5 h, 0.5 micrograms) of 69.5%. In data set [2] (0.5 h, 1 microgram), the inhibition at 0.001 mg was found to be 69.2%. The molecule also displayed an inhibition at 0.002 mg in data set [2] (0.5 h, 2 micrograms) of 74.8%. Moreover, the inhibition at 0.005 mg in data set [2] (0.5 h, 5 micrograms) worked out at 71%. The inhibition at 0.01 mg in data set [2] (0.5 h, 10 micrograms, read-out: Average % Inhibition) came to 78.3%. The “Average % Inhibition” value in the data set on Friend Virus (1 microgram) came out at 5.9%; with Friend Virus (10 micrograms) it was 6.5%; in the data set on Friend Virus (50 micrograms), 19.3%; in the data set with Friend Virus (150 micrograms), 35.2%. The “Average Spleen Weight” value with Friend Virus (1 microgram) is recorded as 0.9197; with Friend Virus (10 micrograms), 0.9147; with Friend Virus (50 micrograms), 0.8134; in the data set on Friend Virus (150 micrograms), 0.6879. The “Actual Spleen Weight” value is 0.9062 and 0.9528 and 0.9001 in the data set with Friend Virus (1 microgram); 0.9126 and 0.8898 and 0.9417 with Friend Virus (10 micrograms); 0.7817 and 0.8389 and 0.8196 with Friend Virus (50 micrograms); 0.6919 and 0.6790 and 0.6927 with Friend Virus (150 micrograms). Also, the EC50 in the data set with retroviruses (virions) was > 21 µM; with Friend Leukemia Virus [3] it was > 316 µM. For the same molecule, the “stability vs pH” value in data set [4] is “decomposses readily in neutral or acetic pH”. Moreover, the “loss of antiviral activity relative to parent” value with retroviruses was “significant loss of in vivo reverse transcriptase inhibitory activity”.
